Reference: patent US9006250B2, “4-amino-6-(heterocyclic)picolinates and 6-amino-2-(heterocyclic)pyrimidine-4-carboxylates and their use as herbicides” (Dow AgroSciences, LLC, priority 2013, dated 2015)

Assays:
Experiment in all cases: Post-Emergent Test I herbicidal activity
Assay type in all cases: in vivo
Conditions in all cases: 4 Kg ai/ha
[1] = system: ECHCG: barnyardgrass (Echinochloa crus-galli)
Description: (§1) Post-Emergent Test I: Seeds test species were obtained from commercial suppliers and planted into a 5″-round pot containing soil-less media mix (Metro-Mix 360®, Sun Gro Horticulture). Postemergence treatments were planted 8-12 days (d) prior to application and cultured in a greenhouse equipped with supplemental light sources to provide a 16 hour (h) photoperiod at 24-29° C. All pots were surface irrigated. Approximately 10 milligrams (mg) of each compound were dissolved in 1.3 mL acetone-DMSO (97:3, v/v) and diluted with 4.1 mL water-isopropanol-crop oil concentrate (78:20:2, v/v/v) containing 0.02% Triton X-155. Treatments were serial diluted with the above formulation solvent to provide 1.85, 0.926, 0.462 and 0.231 mg/mL of test compound delivered in 2.7 mL/pot (roughly equivalent to 4.0, 2.0, 1.0, and 0.5 kg/ha, respectively). Formulated compounds were applied using a DeVilbiss® compressed air sprayer at 2-4 pounds per square inch (psi). Following treatment, pots were returned to the greenhouse for the duration of the experiment. All pots were sub-irrigated as need to provide optimum growing conditions. All pots were fertilized one time per week by subirrigating with Peters Peat-Lite Special® fertilizer (20-10-20). Phytotoxicity ratings were obtained 10 days after treatment postemergence applications. All evaluations were made visually on a scale of 0 to 100 where 0 represents no activity and 100 represents complete plant death. Visual assessments of plant injury were made based on growth reduction, discoloration, leaf deformity and necrosis.

[2] = system: HELAN: sunflower (Helianthus annuus)
Description: as §1

[3] = system: AVEFA: wild oats (Avena fatua)
Description: as §1

[4] = system: IPOHE: ivyleaf morningglory (Ipomoea hederecea)
Description: as §1

[5] = system: SETFA: giant foxtail (Setaria faberi)
Description: as §1

COC(=O)c1nc(-c2cc3nonc3cc2F)nc(N)c1OC [Compound 10, Methyl 6-amino-2-(6-fluorobenzo[c][1,2,5]oxadiazol-5-yl)-5-methoxypyrimidine-4-carboxylate]
C (75-84): Visual Growth Reduction (%) 10 Days After Application ECHCG [1] | Visual Growth Reduction (%) 10 Days After Application HELAN [2] | Visual Growth Reduction (%) 10 Days After Application AVEFA [3] | Visual Growth Reduction (%) 10 Days After Application IPOHE [4] | Visual Growth Reduction (%) 10 Days After Application SETFA [5]
